From PMC4894409 (Scientific Reports, 2015)
Where two headings read alike, the source gives them in different places.

Tests used:
mice [1] = experiment: FS test after AMPT, PCPA, PRAZ or WAY pretreatment (mechanism of antidepressant-like effect of D1); type: in vivo, Male Swiss mice
Protocol: Mice were pretreated (i.p) with saline solution or AMPT 100 mg/kg (catecholamine depletor) 4 h prior to the oral administration of vehicle 10 mL/kg or D1 5 mg/kg. […] In a separate experiment, pretreatment (i.p) of mice with saline solution or PCPA 100 mg/kg (serotonin depletor) for four consecutive days prior to oral administration of vehicle or D1 5 mg/kg was used to investigate effect of serotonin depletion on antidepressant-like activity of this OAD. […] In all the four experiments, oral administration of vehicle or D1 5 mg/kg was followed by FS test (60 min interval between p.o. treatment and behavioural testing).

recombinant human MAO-A = biological target: T1, recombinant human MAO-A (Homo sapiens, UniProt P21397); experiment: Kynuramine deamination inhibition assay, MAO-A; type: biochemical; conditions: 80 μM kynuramine, pH 7.4, 37 °C
T1 construct: purchased BD Biosciences Bedford, MA, USA
T1 sequence (P21397 1-527): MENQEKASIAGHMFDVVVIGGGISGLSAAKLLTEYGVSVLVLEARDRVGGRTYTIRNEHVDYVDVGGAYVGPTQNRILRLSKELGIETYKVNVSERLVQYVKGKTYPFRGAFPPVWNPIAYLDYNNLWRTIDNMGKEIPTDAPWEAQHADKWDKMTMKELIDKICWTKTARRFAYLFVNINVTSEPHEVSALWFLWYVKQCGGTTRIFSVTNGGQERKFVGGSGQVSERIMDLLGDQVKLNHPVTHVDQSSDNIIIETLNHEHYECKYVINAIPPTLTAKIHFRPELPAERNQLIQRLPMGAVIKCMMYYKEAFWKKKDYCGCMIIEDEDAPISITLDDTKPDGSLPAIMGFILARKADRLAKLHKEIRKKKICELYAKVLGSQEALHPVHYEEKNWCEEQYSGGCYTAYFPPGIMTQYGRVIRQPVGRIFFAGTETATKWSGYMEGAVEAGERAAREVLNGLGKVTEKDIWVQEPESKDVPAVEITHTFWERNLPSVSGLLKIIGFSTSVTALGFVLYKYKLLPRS
Protocol: (§1) The assay was performed with the addition of inhibitor. Inhibition was calculated as percent of product formation compared to the corresponding control (enzyme-substrate reaction) without the inhibitors. The reactions were carried out in 0.1 M potassium phosphate buffer at pH 7.4. […] The compounds were dissolved in DMSO. The total reaction volume was 200 μL yielding a final DMSO concentration of 1.0% in the reaction mixture.

mice [2] = experiment: Open field (OF) test; type: in vivo, Male Swiss mice
Protocol: Male Swiss mice (weighing between 25–30 g; 6–8 weeks old), provided by Central Animal House of the Federal University of Goiás, were used in all behavioural models. The experimental animals were kept in an intra-laboratory facility cage (32 × 18 × 16 cm) under controlled environmental conditions (23 ± 1 °C, 12 hr light-dark cycle) with access to food and water ad libitum. The experimental protocols (number 104/08) were approved by Ethical Committee of Federal University of Goiás in accordance to the international laws on the care and use of laboratory animals.
In the OF, animals were randomly divided into six groups [control (vehicle), 3 different doses of OAD, DZP 1 or 5 mg/kg]. Animals were treated with vehicle, OAD (5, 10 or 20 mg/kg, p.o), DZP (1 or 5 mg/kg, p.o) as described in our previous work[7][49], and placed in a circular open field [base area ( [drawing 2] ) = 62.80 cm^2 which is divided into 8 equal sectors enclosed in a 50 cm high wooden wall]. The test session (5-min duration) was videotaped in a sound-proof experimental room. Parameters like total crossing, freezing time, number of grooming and rearing activity, crossing at the centre and time spent at the centre of the open field were observed and scored.

recombinant human MAO-B = biological target: T2, recombinant human MAO-B (Homo sapiens, UniProt P27338); experiment: Kynuramine deamination inhibition assay, MAO-B; type: biochemical; conditions: 50 μM kynuramine, pH 7.4, 37 °C
T2 construct: purchased BD Biosciences Bedford, MA, USA
T2 sequence (P27338 1-520): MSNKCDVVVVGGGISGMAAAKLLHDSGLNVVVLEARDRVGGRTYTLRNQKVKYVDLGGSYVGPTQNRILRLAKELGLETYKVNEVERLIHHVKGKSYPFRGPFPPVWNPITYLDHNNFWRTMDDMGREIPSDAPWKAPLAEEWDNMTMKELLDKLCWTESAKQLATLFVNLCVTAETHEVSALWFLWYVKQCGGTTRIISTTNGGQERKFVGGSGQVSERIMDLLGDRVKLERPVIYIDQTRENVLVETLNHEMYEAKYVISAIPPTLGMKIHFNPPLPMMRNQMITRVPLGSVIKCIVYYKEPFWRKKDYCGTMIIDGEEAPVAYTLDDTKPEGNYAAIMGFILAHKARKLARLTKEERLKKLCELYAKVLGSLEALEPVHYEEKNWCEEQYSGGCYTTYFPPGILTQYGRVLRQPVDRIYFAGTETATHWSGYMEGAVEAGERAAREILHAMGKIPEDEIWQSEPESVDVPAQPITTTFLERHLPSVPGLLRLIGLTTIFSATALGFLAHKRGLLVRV
Protocol: as §1

mice [3] = conditions: mouse, in vivo; for behavioural observation: male, Swiss
Protocol: A modified method that was adopted by Malone[57] was used in the present study to evaluate general pharmacological alterations in mice following administration of D1. This test permits the observation of behavioural change, report of possible toxic effect or death occurrence in addition to variations in pharmacological responses to different route of drug administrations. Group of animals were subjected to s.c, i.p, or p.o route of D1 administrations at the doses of 2, 10, 50 or 250 mg/kg or vehicle 10 mL/kg and observed for 7 days.

With `C=CC(=O)O[C@H]1CC[C@]2(C)[C@H]3CC=C4[C@@H]5CC(C)(C)CC[C@]5(C(=O)O)CC[C@@]4(C)[C@]3(C)CC[C@H]2C1(C)C` [D1, Oleanolic acid acrylate] the “effect of AMPT pretreatment on antidepressant-like effect (swimming time)” value (mice [1]; AMPT 100 mg/kg i.p. + D1 5 mg/kg p.o. versus SAL + D1, p > 0.05) was “did not attenuate”, the “effect of PCPA pretreatment on antidepressant-like effect (swimming time)” value (mice [1]; PCPA 100 mg/kg i.p. four days + D1 5 mg/kg p.o. versus SAL + D1, p > 0.05) was “did not block” and the “effect of PRAZ pretreatment on antidepressant-like effect (swimming time)” value (mice [1]; PRAZ 1 mg/kg i.p. + D1 5 mg/kg p.o. versus SAL + D1, p > 0.05) was “did not block”. The “swimming time in the FS test” value (mice [1]; SAL + D1 5 mg/kg p.o. versus SAL + Vehicle, p < 0.05) was “increased the swimming time”, the “effect of WAY pretreatment on antidepressant-like effect (swimming time)” value (mice [1]; WAY 0.3 mg/kg i.p. + D1 5 mg/kg p.o. versus SAL + D1, p < 0.05) was “significant blockade” and the IC50 (recombinant human MAO-A) was 48.8 ± 1.94 µM. For the same compound, the “crossing at the centre of the OF” value (mice [2]; 10 mg/kg p.o., vs vehicle) was “increase”, the “freezing time in the OF” value (mice [2]; 20 mg/kg p.o., vs vehicle) was “increase” and the “other parameters of the OF test” value (mice [2]; 5, 10, 20 mg/kg p.o., parameters not named as changed, p > 0.05) was “not altered”. The “time spent at the centre of the OF” value (mice [2]; 10 and 20 mg/kg p.o., vs vehicle) was “increase”, the IC50 (recombinant human MAO-B) was greater than 100 µM and the behavioural observation (mice [3]) was “Total recovery from the effects of D1 without any sign of toxicity, weight gain or death occurence”. The behavioural observation (mice [3]; 50 mg/kg, 1 hr) was “Effects after 30 min of administrations persisted”, the behavioural observation (mice [3]; 250 mg/kg, 1 hr) was “Effects after 30 min of administrations persisted” and the “behavioural observation (text)” value (mice [3]; 250 mg/kg) was “reduction in exploratory activity”.
